Experimental data from patent US3959272A, “Aminoalkyl esters of 2-anilino-nicotinic acids” (Societe Anonyme dite: Hexachime, priority 1972, dated 1976).

Type: in vivo, dog
Details: 48 mg/kg intravenously at 1 mg/kg/minute; two dogs
Procedure: The compounds under test were administered to rats or mice intraperitoneally. The loss of the righting reflex was noted and the duration of sleep measured objectively with reference to the loss of the righting reflex. The compounds under test were also administered by slow perfusion to dogs. The moment when the dog fell asleep and the duration of sleep was noted.
Two dogs each weighing 11 kg. received intravenously 48 mg/kg of the product of Example 1 perfused at the rate of 1 mg/kg/minute. Sleep appeared at the end of 25 minutes and lasted for 15 minutes. The animals were sleepy for 1 hour after the end of the perfusion.

Compound: Cc1cccc(Nc2ncccc2C(=O)OCCN2CCOCC2)c1C [Example 1, β-Morpholino ethyl nixylate]
- duration of sleep: 15 min
- time animals were sleepy after the end of the perfusion: 1 h
- time at which sleep appeared: 25 min
